Entries after “also recorded” stand apart in the source; their conditions may differ.

What all share (assay type): in vivo, mouse
In one series the test system is LPA2 receptor. Briefly: Mechanical stimulus-induced pain test (digitized von Frey) in SART (ICS) stress mice given LPA2 AS-ODN/MS-ODN i.c.v.
The test system of a further series is LPA1 receptor. Briefly: Mechanical stimulus-induced pain test (digitized von Frey) in SART (ICS) stress mice given LPA1 AS-ODN/MS-ODN i.c.v. The method, then:
Exposure to SART (ICS) stress was achieved by repeatedly altering extremely different rearing environmental temperatures. Temperature settings were established at room temperature (24° C.) and cold temperature (4° C.). Rearing cages were placed in environments set at the respective temperatures; the animals were reared, with transfer of the mice only every 30 minutes in the daytime (from 10:00 to 16:30), and at the cold temperature in the nighttime (from 16:30 to 10:00 on the following day). This repeated stress was given for 3 days from 16:30 on the day before stress loading to 10:00 on day 3 of stress loading. A solid food and agar for water supply were always kept in the cage during the above-described stress loading period, to maintain an environment allowing the animals to have free access thereto.
A hypersensitive response induction experiment with ICS stress was applied to mice previously dosed with an antisense oligodeoxynucleotide that complementarily binds to the lysophosphatidic acid (hereinafter, denoted as LPA) receptor gene to inhibit the expression thereof (hereinafter, denoted as AS-ODN) as an animal model of generalized pain disease, and the stress exposure of Production Example 1 was performed.
Ten to twelve C57BL/6J mice at 6 weeks of age (20 to 22 g) were used in a normal control group and an ICS stress loading group.
Using “5′-[…]-3′ (SEQ ID NO:5)” as AS-ODN, BLAST search was performed; it was confirmed that the sequence thereof was specific for the LPA1 receptor. For comparative control, mice dosed with a missense oligodeoxynucleotide having a noncomplementary sequence (hereinafter, denoted as MS-ODN) and mice dosed with artificial cerebro-spinal fluid (ACSF) as Vehicle were used. Using “5′-[…]-3′ (SEQ ID NO:6)” as MS-ODN, BLAST search was performed; it was confirmed that the sequence thereof was not similar to other receptors.
SART (ICS) stress based on Production Example 1 above was loaded on the mice after being given ODN and ACSF, after which pain threshold values were measured, and changes over days were examined.
In Example 3, chronic pains were evaluated on mice loaded with stress based on Production Example and Examples. Regarding how to evaluate chronic pains, pain threshold values were evaluated over days by a mechanical stimulus-induced pain test. The mechanical stimulus-induced pain test was performed according to the digitized von Frey method.
AS-ODN was given by intracerebroventricular administration at 10 μg once daily, starting five days before SART (ICS) stress loading. After pretreatment for 5 consecutive days, SART (ICS) stress was started, and intracerebroventricular administration was performed once a day even during the stress loading period. However, there was no administration on day 3 of stress loading, after which administration was discontinued; a total of 7 administrations were performed. The single-dose volume was 5 μl.
In the same way as the above-described method of treatment, MS-ODN and Vehicle were administered 7 times in total before stress loading and during the stress loading period.
On mice acclimated to the environment on a 5 mm×5 mm-mesh net (adaptation-applied), a custom-made plastic chip was applied to a planta of each mouse under a constant pressure from below. At that time, responding weight threshold values were measured digitally.

In series [1] the test system is PLA2. In words: Thermal nociception test (Hargreaves) in ICS stress mice given BEL i.c.v. The settings on record: between P1 and P5, significant change at P3, two doses. The method, then:
(§1) As a PLA2 inhibitor, Bromoenol lactone (Cayman chemical) was used. Drug administration was performed twice in total at 10 a.m. before performing repeated cold stimulation in stress loading (FIG. 9A).
(§2) The whole amount of 5 mg of the drug was dissolved in 200 μl of DMSO and dispensed at 20 nmol/10 μl. 384 μl of artificial cerebro-spinal fluid was added thereto. For a control group, the same amounts of DMSO and artificial cerebro-spinal fluid were mixed and administered. Using a 50 μl Hamilton microsyringe and a needle-equipped cannula, a total volume of 5 μl was given by intracerebroventricular administration. A 26-gauge needle for intracerebroventricular administration was used.
(§3) To create a mouse model of fibromyalgia, ICS (Intermittent Cold Stress) was loaded. […]
Prior to the experiment, each mouse was placed on a glass plate and covered with a cage from above, and the animal was acclimated to the same environment as the experiment for not less than 1 hour. A thermal stimulus was given to a hind paw of the mouse; when the mouse behaved to escape the stimulus, the automatically measured value was read. […]
(§4) With the day of completion of ICS loading as P1, pain threshold values were measured on P3, P5, P12 and P19.

Series [2] relates to PLA2. In words: Mechanical nociception test (automated digitized von Frey) in ICS stress mice given BEL i.c.v. The settings on record: between P1 and P5, significant change at P3, two doses. On the procedure: as §1, §2, §3
(§5) Prior to the experiment, each mouse was placed on a rack on a mesh and covered with a cage from above, and the animal was acclimated to the same environment as the experiment for not less than 1 hour. The tip of a plastic chip was pressed vertically against the center of a hind paw of the mouse from below the rack; when the mouse behaved to withdraw the hind leg, the automatically measured value was read. […]
as §4

A further series deals with ATX. Briefly: Mechanical nociception test (automated digitized von Frey) in ICS stress mice given ATX-AS/ATX-MS i.c.v. The note with it: P1 to P12 after ICS stress; 10 μg/5 μl i.c.v. On the procedure:
ATX-antisense is a drug that suppresses the synthesis of the mRNA of ATX, an LPA synthetase. The ATX-antisense (ATX-AS) used was designed to have the base sequence: “5′-GTCTTGCCATGCCGAGGGAT-3′ (SEQ ID NO:13)”, and the ATX-missense (ATX-MS) used was designed to have the base sequence: “5′-GTTCTCGCAGTCGCAGGAGT-3′ (SEQ ID NO:14)”. The dosage was 10 μg/5 μl both for the antisense and for the missense.
ATX-antisense (operon, 3170003) was given by intracerebroventricular administration on consecutive days starting five days previously, including days of stress loading (FIG. 8A). Doses were given in solution in artificial cerebro-spinal fluid. For control groups, the same amounts of ATX-missense (operon, 3170004) and the solvent were administered, respectively. […]
as §5, §4

Where [3] appears, read: SART (ICS) stress loading group.
The mark [4] stands for this setting: SART (ICS) stress loading group, day 1 of stress loading, 10 μg i.c.v. once daily.
[5] abbreviates: SART (ICS) stress loading group, day before stress loading, 10 μg i.c.v. once daily.
[6] abbreviates: SART (ICS) stress loading group, pretreated i.c.v.
Setting [7] is: treated normal control group (no stress), day 1 of stress loading.

In the case of “5′-TACTACAACGAGACCATCGG-3′ (DNA, backbone and methylation of C not given here) [LPA2 AS-ODN]”, in the series with LPA2 receptor (setting [3]), the “persistence of hypersensitive response” value was “at least 19 days”. Moreover, the “pain threshold value (PWT)” value with LPA2 receptor (setting [4]) came out at 6.43 ± 0.1 g; in the series on LPA2 receptor (setting [5]), 9.77 ± 0.5 g. In addition, in the series on LPA2 receptor (setting [6]), the “suppression of SART (ICS) stress-induced pains” value is “no suppression”.

As for “5′-CGATACACTAGAACGCTCGA-3′ (DNA, backbone and methylation of C not given here) [MS-ODN]”, the “persistence of hypersensitive response” value with LPA1 receptor (setting [3]) and in the series with LPA2 receptor (setting [3]) was “at least 19 days” in each case. Also, the “pain threshold value (PWT)” value was 5.68 ± 0.7 g in the series on LPA1 receptor (setting [4]); 9.59 ± 0.3 g in the series on LPA1 receptor (setting [5]); 9.49 ± 0.2 g with LPA1 receptor (setting [7]); 5.79 ± 0.1 g with LPA2 receptor (setting [4]); 9.58 ± 0.3 g in the series with LPA2 receptor (setting [5]); 9.65 ± 0.3 g with LPA2 receptor (setting [7]).

Consider `O=C1O/C(=C/Br)CCC1c1cccc2ccccc12` (stereo not shown) [BEL, Bromoenol lactone], for which, in the series with PLA2 [1], the “thermal hyperalgesia due to ICS stress” value was “tended to be suppressed”. For the same compound, in the series with PLA2 [2], the “reductions of mechanical nociceptive response threshold values due to ICS stress” value was “tended to be suppressed”.

Regarding “5′-GTTCTCGCAGTCGCAGGAGT-3′ (DNA GTTCTCGCAGTCGCAGGAGT; listed as DNA, chemistry not given here) [ATX-MS, ATX missense control oligonucleotide]”, in the series with ATX, the “mechanical nociceptive response threshold values after ICS stress loading” value is reported as “significant reductions”.

“5′-AGCTGCCATGACAGTGCTGT-3′ (DNA, backbone and methylation of C not given here) [LPA1 AS-ODN]”: the entries for the “pain threshold value (PWT)” value with LPA1 receptor (setting [4]) and in the series with LPA1 receptor (setting [5]) were 8.76 ± 0.5 g and 9.77 ± 0.4 g, respectively. The “hypersensitive response / chronic pain after SART (ICS) stress, measured over days” value in the series on LPA1 receptor (setting [6]) is recorded as “no hypersensitive responses were noted; also recorded: suppressed”. Besides, the “threshold values of treated normal control group versus Vehicle and LPA1 MS-ODN groups” value in the series on LPA1 receptor (normal control group (no stress)) was “comparable”.

For the origin of these results see US9265751B2, “Methods for treating chronic pain” (Nagasaki University, priority 2008, dated 2016).
